Paper PMC6958329, “New ^55Co-labeled Albumin-Binding Folate Derivatives as Potential PET Agents for Folate Receptor Imaging” (Pharmaceuticals, 2019)
Several values for one entry are separate records, joined by “and”; a condition that tells them apart may be missing. Equal values may be shown once.

System: KB tumor bearing mice
Assay: In vivo biodistribution in KB tumor bearing mice
Details: for Biodistribution, Tumor: KB tumor; for Biodistribution, Tumor / Biodistribution, Blood / Biodistribution, Bone / Biodistribution, Brain / Biodistribution, Fat / Biodistribution, Heart / Biodistribution, Intestine / Biodistribution, Kidney / Biodistribution, Liver / Biodistribution, Lungs / Biodistribution, Muscle / Biodistribution, Pancreas / Biodistribution, Skin / Biodistribution, Spleen / Biodistribution, Stomach: n = 4
Description: The in vivo behavior of each ^55Co-labeled folate was evaluated in KB-tumor bearing mice via biodistribution studies and PET/CT imaging. The biodistribution data are presented in Table 3 and Table 4, and are reported as the percent of injected activity per gram of tissue (% IA/g). Statistically significant differences in renal uptake between the two ^55Co-labeled compounds were observed. At 4 h post-injection, the radiofolates had uptake values in the kidneys of 36% ± 7% IA/g for [^55Co]Co-cm10 and 53% ± 12% IA/g for [^55Co]Co-rf42. […] Lower renal uptake for [^55Co]Co-cm10 may in part be due to slightly higher lipophilicity (supported by its larger molecular weight and a longer HPLC-retention time) in comparison to [^55Co]Co-rf42. […] Despite the differences in blood retention, tumor uptake for both radiofolates was similar with values of 17% ± 2% IA/g for [^55Co]Co-cm10 and 17% ± 4% IA/g for [^55Co]Co-rf42 at 4 h post-injection. […] The PET/CT images (presented as maximal intensity projections) confirm the biodistribution findings, highlighting the kidneys and tumors as the tissues with the highest activity uptake (Figure 5).
All animal studies were performed using a protocol approved by the Institutional Animal Care and Use Committee at the University of Alabama at Birmingham and were in compliance with national animal welfare policies and guidelines. Female athymic nude mice (Charles River, Wilmington, MA, USA), age 5 weeks, were implanted with KB cells via subcutaneous injection of 5 × 10^6 cells in 100 μL of PBS in the right shoulder. Tumors were allowed to grow for 12 days, during which time mice were fed Teklad Folic Acid Deficient Diet (Envigo, Huntingdon, United Kingdom).
Biodistribution and imaging studies for [^55Co]Co-cm10 and [^55Co]Co-rf42 were performed at 4 h and 24 h post-injection on groups of four mice. An additional cohort of mice was co-injected with a blocking dose of folic acid (100 μg), and biodistribution was performed at 4 h post-injection. At 2 h, mice were induced using 3% isoflurane and a 50 μL blood sample was taken retro-orbitally to monitor blood activity at an early time point.
The radiofolates were prepared as described with final molar activities of 835.5 MBq/μmol (22.6 mCi/μmol) for [^55Co]Co-cm10 and 957.6 MBq/μmol (25.9 mCi/μmol) for [^55Co]Co-rf42 in 60 μL reaction volume. Injections (100 µL) were prepared by dilution of the radiofolates in sterile saline (pH = 7). The final [^55Co]Co-cm10 injection contained 1,924 kBq (52 μCi) and 2.3 nmol cm10 and the final [^55Co]Co-rf42 injection contained 2,479 kBq […] and 2.4 nmol rf42. Blocking doses contained an additional 100 µg of folic acid and were prepared by diluting the radiofolates with 1 μg/μL folic acid in sterile saline (pH adjusted to 7). Mice were euthanized humanely by cervical dislocation following anaesthetization with 3% isoflurane, and their organs were collected, weighed and counted using an automatic gamma counter.

[1] = 4 h, co-administration of 100 µg folic acid blocking dose

SMILES: Nc1nc2ncc(CNc3ccc(C(=O)N[C@@H](CCC(=O)NC(CCCCNC(=O)CCC(C(=O)O)N4CCN(CC(=O)O)CCN(CC(=O)O)CC4)C(=O)NC(CCCCNC(=O)CCCc4ccc(I)cc4)C(=O)O)C(=O)O)cc3)nc2c(=O)[nH]1.[55Co] (stereo partly shown) [[^55Co]Co-rf42]
- Biodistribution, Tumor [1]: 7 ± 2 % IA/g
- Biodistribution, Blood [1]: 15 ± 2 % IA/g
- Biodistribution, Bone [1]: 1.7 ± 0.5 % IA/g
- Biodistribution, Brain [1]: 0.5 ± 0.1 % IA/g
- Biodistribution, Fat [1]: 2.7 ± 0.6 % IA/g
- Biodistribution, Heart [1]: 4 ± 1 % IA/g
- Biodistribution, Intestine [1]: 2.2 ± 0.3 % IA/g
- Biodistribution, Kidney [1]: 12 ± 4 % IA/g
- Biodistribution, Liver [1]: 4 ± 1 % IA/g
- Biodistribution, Lungs [1]: 5.6 ± 0.3 % IA/g
- Biodistribution, Muscle [1]: 1.5 ± 0.3 % IA/g
- Biodistribution, Pancreas [1]: 2.2 ± 0.2 % IA/g
- Biodistribution, Skin [1]: 3.5 ± 0.8 % IA/g
- Biodistribution, Spleen [1]: 2.1 ± 0.3 % IA/g
- Biodistribution, Stomach [1]: 1.1 ± 0.5 % IA/g
- Biodistribution, Blood (4 h post-injection): 8 % IA/g and 8 ± 3 % IA/g
- Biodistribution, Bone (4 h post-injection): 1.3 ± 0.2 % IA/g
- Biodistribution, Brain (4 h post-injection): 0.7 ± 0.1 % IA/g
- Biodistribution, Fat (4 h post-injection): 3.2 ± 0.9 % IA/g
- Biodistribution, Heart (4 h post-injection): 2.9 ± 0.4 % IA/g
- Biodistribution, Intestine (4 h post-injection): 2.2 ± 0.5 % IA/g
- Biodistribution, Liver (4 h post-injection): 3.8 ± 0.6 % IA/g
- Biodistribution, Lungs (4 h post-injection): 4 ± 1 % IA/g
- Biodistribution, Muscle (4 h post-injection): 1.6 ± 0.4 % IA/g
- Biodistribution, Pancreas (4 h post-injection): 2.4 ± 0.5 % IA/g
- Biodistribution, Skin (4 h post-injection): 8 ± 1 % IA/g
- Biodistribution, Spleen (4 h post-injection): 1.5 ± 0.3 % IA/g
- Biodistribution, Stomach (4 h post-injection): 0.8 ± 0.4 % IA/g
- Biodistribution, Blood (24 h post-injection): 1.0 ± 0.4 % IA/g
- Biodistribution, Bone (24 h post-injection): 0.6 ± 0.2 % IA/g
- Biodistribution, Brain (24 h post-injection): 0.4 ± 0.1 % IA/g
- Biodistribution, Fat (24 h post-injection): 2.7 ± 0.2 % IA/g
- Biodistribution, Heart (24 h post-injection): 2.0 ± 0.4 % IA/g
- Biodistribution, Intestine (24 h post-injection): 0.8 ± 0.2 % IA/g
- Biodistribution, Kidney (24 h post-injection): 46 ± 14 % IA/g
- Biodistribution, Liver (24 h post-injection): 2.9 ± 0.5 % IA/g
- Biodistribution, Lungs (24 h post-injection): 1.5 ± 0.4 % IA/g
- Biodistribution, Muscle (24 h post-injection): 1.2 ± 0.6 % IA/g
- Biodistribution, Pancreas (24 h post-injection): 1.9 ± 0.3 % IA/g
- Biodistribution, Skin (24 h post-injection): 6 ± 2 % IA/g
- Biodistribution, Spleen (24 h post-injection): 0.6 ± 0.2 % IA/g
- Biodistribution, Stomach (24 h post-injection): 0.5 ± 0.2 % IA/g
- tumor-to-kidney ratio (compared with [^64Cu]Cu-rf42 and [^68Ga]Ga-rf42, Figure 6): lowest

SMILES: Nc1nc2ncc(CNc3ccc(C(=O)N[C@@H](CCC(=O)NC(CCCCNC(=O)CN4CCN(CC(=O)O)CCN(CC(=O)O)CCN(CC(=O)O)CC4)C(=O)NC(CCCCNC(=O)CCCc4ccc(I)cc4)C(=O)O)C(=O)O)cc3)nc2c(=O)[nH]1.[55Co] (stereo partly shown) [[^55Co]Co-cm10]
- Biodistribution, Tumor [1]: 8 ± 4 % IA/g
- Biodistribution, Blood [1]: 17 ± 3 % IA/g
- Biodistribution, Bone [1]: 2.2 ± 0.8 % IA/g
- Biodistribution, Brain [1]: 0.6 ± 0.2 % IA/g
- Biodistribution, Fat [1]: 4 ± 1 % IA/g
- Biodistribution, Heart [1]: 4.2 ± 0.7 % IA/g
- Biodistribution, Intestine [1]: 2.3 ± 0.4 % IA/g
- Biodistribution, Kidney [1]: 16 ± 4 % IA/g
- Biodistribution, Liver [1]: 3.5 ± 0.5 % IA/g
- Biodistribution, Lungs [1]: 7 ± 3 % IA/g
- Biodistribution, Muscle [1]: 2.1 ± 0.7 % IA/g
- Biodistribution, Pancreas [1]: 2.4 ± 0.7 % IA/g
- Biodistribution, Skin [1]: 5 ± 1 % IA/g
- Biodistribution, Spleen [1]: 2.2 ± 0.4 % IA/g
- Biodistribution, Stomach [1]: 1.5 ± 0.1 % IA/g
- Biodistribution, Blood (4 h post-injection): 14 % IA/g and 13.8 ± 0.8 % IA/g
- Biodistribution, Bone (4 h post-injection): 1.8 ± 0.6 % IA/g
- Biodistribution, Brain (4 h post-injection): 0.8 ± 0.1 % IA/g
- Biodistribution, Fat (4 h post-injection): 5 ± 1 % IA/g
- Biodistribution, Heart (4 h post-injection): 4.7 ± 0.6 % IA/g
- Biodistribution, Intestine (4 h post-injection): 1.9 ± 0.3 % IA/g
- Biodistribution, Liver (4 h post-injection): 3.7 ± 0.6 % IA/g
- Biodistribution, Lungs (4 h post-injection): 5.4 ± 0.6 % IA/g
- Biodistribution, Muscle (4 h post-injection): 2.4 ± 0.9 % IA/g
- Biodistribution, Pancreas (4 h post-injection): 2.4 ± 0.7 % IA/g
- Biodistribution, Skin (4 h post-injection): 6 ± 2 % IA/g
- Biodistribution, Spleen (4 h post-injection): 2.0 ± 0.4 % IA/g
- Biodistribution, Stomach (4 h post-injection): 0.8 ± 0.2 % IA/g
- Biodistribution, Blood (24 h post-injection): 2.6 ± 0.3 % IA/g
- Biodistribution, Bone (24 h post-injection): 0.8 ± 0.2 % IA/g
- Biodistribution, Brain (24 h post-injection): 0.45 ± 0.08 % IA/g
- Biodistribution, Fat (24 h post-injection): 3 ± 2 % IA/g
- Biodistribution, Heart (24 h post-injection): 1.7 ± 0.2 % IA/g
- Biodistribution, Intestine (24 h post-injection): 0.92 ± 0.08 % IA/g
- Biodistribution, Kidney (24 h post-injection): 30 ± 2 % IA/g
- Biodistribution, Liver (24 h post-injection): 1.9 ± 0.3 % IA/g
- Biodistribution, Lungs (24 h post-injection): 1.9 ± 0.3 % IA/g
- Biodistribution, Muscle (24 h post-injection): 1.3 ± 0.3 % IA/g
- Biodistribution, Pancreas (24 h post-injection): 1.4 ± 0.2 % IA/g
- Biodistribution, Skin (24 h post-injection): 7 ± 3 % IA/g
- Biodistribution, Spleen (24 h post-injection): 1.0 ± 0.1 % IA/g
- Biodistribution, Stomach (24 h post-injection): 0.34 ± 0.09 % IA/g
